Results from patent US10231986B2, “Amino acid phosphoramidate pronucleotides of 2′-cyano, azido and amino nucleosides for the treatment of HCV” (Centre National De La Recherche Scientifique, priority 2013, dated 2019).
Where two headings read alike, the source gives them in different places.

Assays:
[1] = Cytotoxicity evaluation, CellTiter-Blue Cell Viability Assay; conditions: human
[2] = system: HCV genotype 1b replicon in Huh-7-derived cell line (Zluc); experiment: HCV replicon assay (luciferase reporter); assay type: cell-based
Experimental: Huh-7-derived cell line (Zluc) that harbors an HCV genotype 1b replicon and a luciferase reporter gene was grown in Dulbecco's Modified Eagle Medium (DMEM) supplemented with 10% fetal bovine serum, 2 mM GlutaMAX, 1% MEM nonessential amino acids, 100 IU/mL penicillin, 100 μg/mL streptomycin, and 0.5 mg/mL Geneticin® (G418). For dose response testing the cells were seeded in 96-well plates at 7.5×10^3 cells per well in a volume of 50 μL, and incubated at 37° C./5% CO2. Drug solutions were made up freshly in Huh-7 media as 2× stocks. Ten additional 5-fold dilutions were prepared from these stocks in DMEM without G418. At least three hours after Zluc cells were seeded, drug treatment was initiated by adding 50 μL of drug dilutions to the plates in duplicate. Final concentrations of drug ranged from 100 μM to […]. Cells were then incubated at 37° C./5% CO2. Alternatively, compounds were tested at two concentrations (1 μM and 10 μM). […] For this, media was removed from the plates via gentle tapping. Fifty microliters of ONE-glo luciferase assay reagent was added to each well. The plates were shaken gently for 3 min at room temperature and luminescence was measured on a Victor^3 V 1420 multilabel counter (Perkin Elmer) with a 1 second read time using a 700 nm cut-off filter. The EC50 values were calculated from dose response curves from the resulting best-fit equations determined by Microsoft Excel and XLfit 4.1 software. When screening at two fixed concentrations, the results were expressed as % inhibition at 1 μM and 10 μM.

[3] = system: Zluc cells; experiment: Cytotoxicity evaluation, CellTiter-Blue Cell Viability Assay; conditions: read-out: HCV Replicon CC50; Zluc cells, CellTiter-Blue
[4] = biological target: T1, HCV genotype 1b NS5B protein containing the S282T mutation (Hepatitis C virus genotype 1b, UniProt Q9WMX2, S2701T); experiment: HCV polymerase enzyme assay, S282T mutant; assay type: biochemical
T1 construct: approximately 65 kDa HCV genotype 1b NS5B protein were used to generate recombinant HCV polymerases; made in house
Source text: (§1) Test compounds in the form of nucleoside triphosphates were examined for inhibitory activity against purified HCV polymerase in a standard assay. Bacterial expression constructs encoding the approximately 65 kDa HCV genotype 1b NS5B protein were used to generate recombinant HCV polymerases (with a deletion of the 21 carboxy terminal amino acids). Both the wild-type genotype 1b protein and protein containing the S282T mutation were expressed and purified for use in the enzymatic activity assay.
(§2) The enzymatic activity assay measured the inhibitory effect of increasing concentrations of test compound on the incorporation of α-[^33P]-labeled nucleotide into trichloroacetic acid-precipitable material. Recombinant polymerase and synthetic RNA template were combined in reaction buffer containing ribonucleoside triphosphates, α-[^33P]-labeled nucleotide and eight concentrations of test compound in three-fold dilutions. Reactions were incubated for two hours at 30° C.
(§3) Reactions were terminated by the addition of ice-cold trichloroacetic acid and sodium pyrophosphate to promote precipitation of newly-synthesized ribonucleic acid. Precipitable material from the reactions was collected by filtration onto 96-well filter plates, washed extensively with water, and quantified by liquid scintillation.
(§4) The inhibitory activity of test compounds was determined by fitting results to dose-response curves using XLfit software.

[5] = biological target: T2, wild-type HCV genotype 1b NS5B protein (recombinant HCV polymerase) (Hepatitis C virus genotype 1b, UniProt Q9WMX2); experiment: HCV polymerase enzyme assay, wild-type; assay type: biochemical
T2 construct: approximately 65 kDa HCV genotype 1b NS5B protein were used to generate recombinant HCV polymerases; made in house
Source text: as §1, §2, §3, §4

[6] = Hepatitis C virus, 72 h, read-out: HCV Replicon EC50, Zluc cells, genotype 1b replicon, 72 hours of incubation
[7] = Hepatitis C virus, 72 h, Zluc cells, genotype 1b replicon, 72 hours of incubation, read-out: HCV Replicon EC50
[8] = Zluc cells, genotype 1b replicon, 72 hours of incubation, read-out: HCV Replicon EC50
[9] = Zluc cells (HCV replicon cells)

SMILES	CC50 at 72 h [1] [µM]	EC50 [2, 7] [µM]	IC50 [5] [µM]	other results
CC(C)OC(=O)[C@H](C)NP(=O)(OC[C@H]1O[C@@H](n2ccc(N)nc2=O)[C@H](N=[N+]=[N-])[C@@H]1O)Oc1ccccc1 (mixture of isomers) [Compound 530 Diastereomer Mix]	> 50			EC50 [2, 6]: > 10 µM
CC(C)OC(=O)[C@H](C)NP(=O)(OC[C@H]1O[C@@H](n2ccc(=O)[nH]c2=O)[C@H](N)[C@@H]1O)Oc1ccccc1 (single isomer, unassigned) [Compound 526 Diastereomer 1]	> 50	> 10		
CC(C)OC(=O)[C@H](C)NP(=O)(OC[C@H]1O[C@@H](n2ccc(=O)[nH]c2=O)[C@H](N)[C@@H]1O)Oc1ccccc1 (single isomer, unassigned) [Compound 526 Diastereomer 2]				CC50 [3]: > 50 µM; EC50 [2, 8]: > 10 µM
CC(C)OC(=O)[C@H](C)NP(=O)(OC[C@H]1O[C@@H](n2ccc(=O)[nH]c2=O)[C@H](N=[N+]=[N-])[C@@H]1O)Oc1ccccc1 (single isomer, unassigned) [Compound 528 Diastereomer 1]	> 50	> 10		
CC(C)OC(=O)[C@H](C)NP(=O)(OC[C@H]1O[C@@H](n2ccc(=O)[nH]c2=O)[C@H](N=[N+]=[N-])[C@@H]1O)Oc1ccccc1 (single isomer, unassigned) [Compound 528 Diastereomer 2]				CC50 [3]: > 50 µM; EC50 [2, 8]: > 10 µM
CC(C)OC(=O)[C@H](C)NP(=O)(OC[C@H]1O[C@@H](n2ccc(N)nc2=O)[C@H](N=[N+]=[N-])[C@@H]1O)Oc1ccccc1 (single isomer, unassigned) [Compound 530 Diastereomer 1]	> 50			EC50 [2, 6]: > 10 µM
CC(C)OC(=O)[C@H](C)NP(=O)(OC[C@H]1O[C@@H](n2ccc(N)nc2=O)[C@H](N)[C@@H]1O)Oc1ccccc1 (single isomer, unassigned) [Compound 531 Diastereomer 1]	> 50			EC50 [2, 6]: > 10 µM
CC(C)OC(=O)[C@H](C)NP(=O)(OC[C@H]1O[C@@H](n2ccc(=O)[nH]c2=O)[C@](C)(N=[N+]=[N-])[C@@H]1O)Oc1ccccc1 (single isomer, unassigned) [Reference Compound A18 Diastereomer 1, reference compound]	> 50	> 10		
CC(C)OC(=O)[C@H](C)NP(=O)(OC[C@H]1O[C@@H](n2ccc(=O)[nH]c2=O)[C@](C)(N)[C@@H]1O)Oc1ccccc1 (single isomer, unassigned) [Reference Compound A19 Diastereomer 1, reference compound]	> 50			EC50 [2, 8]: > 10 µM
CC(C)OC(=O)[C@H](C)NP(=O)(OC[C@H]1O[C@@H](n2ccc(=O)[nH]c2=O)[C@](C)(N)[C@@H]1O)Oc1ccccc1 (single isomer, unassigned) [Reference Compound A19 Diastereomer 2, reference compound]				CC50 [3]: > 50 µM; EC50 [2, 8]: 1 to 10 µM
CC(C)OC(=O)[C@@H](C)N[P@@](=O)(OC[C@H]1O[C@@H](n2ccc(N)nc2=O)[C@](C)(C#N)[C@@H]1O)Oc1ccccc1 [Compound 1a]	> 50	> 10		
C[C@@]1(N=[N+]=[N-])[C@H](O)[C@@H](COP(=O)(O)OP(=O)(O)OP(=O)(O)O)O[C@H]1n1cnc2c(N)ncnc21 [Compound 201]			0.25 to 1	IC50 [4]: > 10 µM
C[C@@]1(N=[N+]=[N-])[C@H](O)[C@@H](COP(=O)(O)OP(=O)(O)OP(=O)(O)O)O[C@H]1n1ccc(=O)[nH]c1=O [Compound 202]			0.25 to 1	IC50 [4]: > 10 µM
C[C@@]1(N)[C@H](O)[C@@H](COP(=O)(O)OP(=O)(O)OP(=O)(O)O)O[C@H]1n1ccc(=O)[nH]c1=O [Compound 203]			1 to 10	IC50 [4]: > 10 µM
C[C@@]1(C#N)[C@H](O)[C@@H](COP(=O)(O)OP(=O)(O)OP(=O)(O)O)O[C@H]1n1ccc(=O)[nH]c1=O [Compound 204]			< 0.25	IC50 [4]: 1 to 10 µM
C[C@@]1(C#N)[C@H](O)[C@@H](COP(=O)(O)OP(=O)(O)OP(=O)(O)O)O[C@H]1n1ccc(N)nc1=O [Compound 205]			0.25 to 1	
C[C@@]1(N)[C@H](O)[C@@H](COP(=O)(O)OP(=O)(O)OP(=O)(O)O)O[C@H]1n1ccc(N)nc1=O [Compound 206]			1 to 10	
Nc1ccn([C@@H]2O[C@H](COP(=O)(O)OP(=O)(O)OP(=O)(O)O)[C@@H](O)[C@H]2N)c(=O)n1 [Compound 207]			0.25 to 1	
C[C@@]1(N)[C@H](O)[C@@H](COP(=O)(O)OP(=O)(O)OP(=O)(O)O)O[C@H]1n1cnc2c(N)ncnc21 [Compound 208]			1 to 10	IC50 [4]: > 10 µM
C[C@]1(N=[N+]=[N-])C(n2cnc3c(N)ncnc32)O[C@H](CO)[C@H]1O (stereo partly shown) [Reference Compound 101, reference compound]		> 10		CC50 at 72 h [1, 9]: > 50 µM
C[C@@]1(N=[N+]=[N-])[C@H](O)[C@@H](CO)O[C@H]1n1ccc(=O)[nH]c1=O [Reference Compound 102, reference compound]		> 10		CC50 at 72 h [1, 9]: > 50 µM
C[C@@]1(N)[C@H](O)[C@@H](CO)O[C@H]1n1ccc(=O)[nH]c1=O [Reference Compound 103, reference compound]		> 10		CC50 at 72 h [1, 9]: > 50 µM
CC1(C#N)C(O)C(CO)OC1n1ccc(N)nc1=O (stereo not shown) [Reference Compound A9b, reference compound]				CC50 [3]: > 50 µM; EC50 [2, 8]: 1 to 10 µM
